Assays:
[1] = system: ATXN3 pre-mRNA (transcripts containing exon 4); assay: ATXN3 quantitative splicing assay (qPCR, E4E5 transcripts containing exon 4); type: cell-based; details: Homo sapiens; SK-N-MC cells, 24 h treatment, qPCR E4E5 primers/probe
Description: Human neuroblastoma SK-N-MC cells were plated in 384-well plates at 20,000 cells/well. Twenty-four hours after plating, cells were treated with compounds for 24 h at appropriate concentrations ranging from 30 μM to 0.6 nM (0.3% DMSO). Treated cells were lysed in 15 μL of lysis buffer, and cDNA was synthesized using the Fast Advanced Cells-to-Ct kit. Two μL of each cDNA was used in qPCR reactions to confirm the exon 4 skipped transcripts of ATXN3. A second set of primers/probe E4E5 was used to detect the transcripts containing exon 4. The third set of primers/probe E8E9 was used to detect total gene level of ATXN3. The qPCR reactions were prepared in 384-well plates in 10 μL volume, using TaqMan™ Fast Advanced Master Mix with primers and probes shown in the table below. Reactions were run in a Quant Studio 6 qPCR instrument with default settings.
The primers and probes are listed below in Table 5.

[2] = system: total ATXN3 protein; assay: ATXN3 total protein assay (MSD); type: cell-based, human; details: SK-N-MC cells, 48 h incubation
Description: Human neuroblastoma SK-N-MC cells were seeded at 10,000 cells/well in 384 well plates one day prior to compound treatment. The concentrations of compounds were tested at appropriate doses ranging from 30 μM to 0.6 nM. After incubation for 48 hours, the cells were lysed with 25 μL of lysis buffer containing protease inhibitors, and total ATXN3 protein levels were assessed by Mesoscale Discovery (MSD) assay developed with one pair of anti-ATXN3 antibodies. The capture and detect antibodies were raised in mouse and rabbit respectively. Anti-rabbit MSD-ST antibody was used for secondary antibody.
ATXN3 recombinant protein was used for standards. The readouts were captured with 35 μL of MSD read buffer and multi-array 384-well high binding plates.

IC50 [1]	IC50 [2]	Compound
101 to 500 nM	101 to 500 nM	C#Cc1c(C[C@@H](N)CC2CC2)sc2c(NCc3ccco3)snc12 [Compound 32, 7-[(S)-2-amino-3-cyclopropylpropyl]-8-ethynyl-4-(furfurylamino)-3,6-dithia-2-azabicyclo[3.3.0]octa-1,4,7-triene]
10000 to 40000 nM	10000 to 40000 nM	C#Cc1c(C[C@@H](N)COC)sc2c(NCc3ccccc3)snc12 [Compound 30, 7-[(R)-2-amino-3-methoxypropyl]-4-benzylamino-8-ethynyl-3,6-dithia-2-azabicyclo[3.3.0]octa-1,4,7-triene]
101 to 500 nM	101 to 500 nM	C#Cc1c(C[C@@H](N)[C@H](C)F)sc2c(NCc3cccs3)snc12 [Compound 19, 5-[(2R,3S)-2-amino-3-fluorobutyl]-6-ethynyl-N-(thiophen-2-ylmethyl)thieno[3,2-c][1,2]thiazol-3-amine]
101 to 500 nM	501 to 5000 nM	C#Cc1c(C[C@@H](N)CF)sc2c(NCc3cccs3)snc12 [Compound 17, 7-[(R)-2-amino-3-fluoropropyl]-8-ethynyl-4-thenylamino-3,6-dithia-2-azabicyclo[3.3.0]octa-1,4,7-triene]
101 to 500 nM	101 to 500 nM	C#Cc1c(C[C@@H](N)[C@H](C)F)sc2c(NCc3ccco3)snc12 [Compound 25, 7-[(2R,3S)-2-amino-3-fluorobutyl]-8-ethynyl-4-(furfurylamino)-3,6-dithia-2-azabicyclo[3.3.0]octa-1,4,7-triene]
0.01 to 100 nM	0.01 to 100 nM	C#Cc1c(C[C@@H](N)CO)sc2c(NCc3cccs3)snc12 [Compound 16, (R)-2-amino-3-(8-ethynyl-4-thenylamino-3,6-dithia-2-azabicyclo[3.3.0]octa-1,4,7-trien-7-yl)-1-propanol]
101 to 500 nM	501 to 5000 nM	C#Cc1c(C[C@@H](N)[C@@H](C)F)sc2c(NCc3ccco3)snc12 [Compound 24, 7-[(2R,3R)-2-amino-3-fluorobutyl]-8-ethynyl-4-(furfurylamino)-3,6-dithia-2-azabicyclo[3.3.0]octa-1,4,7-triene]
501 to 5000 nM	501 to 5000 nM	C[C@H](F)[C@H](N)Cc1sc2c(NCc3cccs3)snc2c1-c1ncco1 [Compound 41, 7-[(2R,3S)-2-amino-3-fluorobutyl]-8-(1,3-oxazol-2-yl)-4-thenylamino-3,6-dithia-2-azabicyclo[3.3.0]octa-1,4,7-triene]
501 to 5000 nM	501 to 5000 nM	C#Cc1c(C[C@@H](N)COC2CC2)sc2c(NCc3cccs3)snc12 [Compound 34, 7-[(R)-2-amino-3-cyclopropoxypropyl]-8-ethynyl-4-thenylamino-3,6-dithia-2-azabicyclo[3.3.0]octa-1,4,7-triene]
501 to 5000 nM	501 to 5000 nM	C#Cc1c(C[C@@H](N)COC)sc2c(NCc3cccs3)snc12 [Compound 15, 7-[(R)-2-amino-3-methoxypropyl]-8-ethynyl-4-thenylamino-3,6-dithia-2-azabicyclo[3.3.0]octa-1,4,7-triene]
501 to 5000 nM	501 to 5000 nM	C#Cc1c(C(F)(F)[C@H](C)N)sc2c(NCc3cccs3)snc12 [Compound 35, 7-[(S)-2-amino-1,1-difluoropropyl]-8-ethynyl-4-thenylamino-3,6-dithia-2-azabicyclo[3.3.0]octa-1,4,7-triene]
501 to 5000 nM	501 to 5000 nM	C#Cc1c(C[C@@H](N)COC)sc2c(NCc3ccco3)snc12 [Compound 14, 7-[(R)-2-amino-3-methoxypropyl]-8-ethynyl-4-(furfurylamino)-3,6-dithia-2-azabicyclo[3.3.0]octa-1,4,7-triene]
501 to 5000 nM	501 to 5000 nM	C#Cc1c(C[C@@H](N)C(F)F)sc2c(NCc3ccco3)snc12 [Compound 37, 7-[(R)-2-amino-3,3-difluoropropyl]-8-ethynyl-4-(furfurylamino)-3,6-dithia-2-azabicyclo[3.3.0]octa-1,4,7-triene]
101 to 500 nM	501 to 5000 nM	C#Cc1c(C[C@@H](N)CF)sc2c(NCc3ccco3)snc12 [Compound 23, 7-[(R)-2-amino-3-fluoropropyl]-8-ethynyl-4-(furfurylamino)-3,6-dithia-2-azabicyclo[3.3.0]octa-1,4,7-triene]
501 to 5000 nM	501 to 5000 nM	C#Cc1c(C[C@@H](N)CC2CC2)sc2c(NCc3cccs3)snc12 [Compound 33, 7-[(S)-2-amino-3-cyclopropylpropyl]-8-ethynyl-4-thenylamino-3,6-dithia-2-azabicyclo[3.3.0]octa-1,4,7-triene]
0.01 to 100 nM	0.01 to 100 nM	C#Cc1c(C[C@@H](N)CO)sc2c(NCc3ccco3)snc12 [Compound 13, (R)-2-amino-3-{8-ethynyl-4-(furfurylamino)-3,6-dithia-2-azabicyclo[3.3.0]octa-1,4,7-trien-7-yl}-1-propanol]
101 to 500 nM	0.01 to 100 nM	C#Cc1c(C[C@@H](N)[C@H](C)F)sc2c(NCc3nccs3)snc12 [Compound 22, 7-[(2R,3S)-2-amino-3-fluorobutyl]-8-ethynyl-4-{[(1,3-thiazol-2-yl)methyl]amino}-3,6-dithia-2-azabicyclo[3.3.0]octa-1,4,7-triene]

Compound	IC50 [1]	IC50 [2]
C[C@H](N)Cc1sc2c(NCc3cccs3)snc2c1-c1cccnc1 [Compound 6, 7-[(S)-2-aminopropyl]-8-(3-pyridyl)-4-thenylamino-3,6-dithia-2-azabicyclo[3.3.0]octa-1,4,7-triene]	10000 to 40000 nM	10000 to 40000 nM
C[C@H](N)Cc1sc2c(NCc3cccs3)snc2c1-n1ccnc1 [Compound 8, 5-[(2S)-2-aminopropyl]-6-(imidazol-1-yl)-N-(thiophen-2-ylmethyl)thieno[3,2-c][1,2]thiazol-3-amine]	10000 to 40000 nM	10000 to 40000 nM
C[C@H](N)Cc1sc2c(NCc3cccs3)snc2c1-c1ccncc1 [Compound 5, 7-[(S)-2-aminopropyl]-8-(4-pyridyl)-4-thenylamino-3,6-dithia-2-azabicyclo[3.3.0]octa-1,4,7-triene]	10000 to 40000 nM	10000 to 40000 nM
C#Cc1c(C[C@H](C)N)sc2c(NCc3ccco3)snc12 [Compound 11, 7-[(S)-2-aminopropyl]-8-ethynyl-4-(furfurylamino)-3,6-dithia-2-azabicyclo[3.3.0]octa-1,4,7-triene]	0.01 to 100 nM	0.01 to 100 nM
C[C@H](N)Cc1sc2c(NCc3cccs3)snc2c1-c1ncco1 [Compound 40, 7-[(S)-2-aminopropyl]-8-(1,3-oxazol-2-yl)-4-thenylamino-3,6-dithia-2-azabicyclo[3.3.0]octa-1,4,7-triene]	501 to 5000 nM	501 to 5000 nM
C[C@H](N)Cc1sc2c(NCc3cccs3)snc2c1-n1cccn1 [Compound 3, 7-[(S)-2-aminopropyl]-8-(1-pyrazolyl)-4-thenylamino-3,6-dithia-2-azabicyclo[3.3.0]octa-1,4,7-triene]	10000 to 40000 nM	10000 to 40000 nM
C[C@H](N)Cc1sc2c(NCc3ccco3)snc2c1-c1cccnc1 [Compound 12, 7-[(S)-2-aminopropyl]-4-(furfurylamino)-8-(3-pyridyl)-3,6-dithia-2-azabicyclo[3.3.0]octa-1,4,7-triene]	10000 to 40000 nM	10000 to 40000 nM
C[C@H](N)Cc1sc2c(NCc3cccs3)snc2c1-c1ccccn1 [Compound 7, 5-[(2S)-2-aminopropyl]-6-(pyridin-2-yl)-N-(thiophen-2-ylmethyl)thieno[3,2-c][1,2]thiazol-3-amine]	10000 to 40000 nM	10000 to 40000 nM
C#Cc1c(C[C@H](C)N)sc2c(NCc3cccs3)snc12 [Compound 4, 5-[(2S)-2-aminopropyl]-6-ethynyl-N-(thiophen-2-ylmethyl)thieno[3,2-c][1,2]thiazol-3-amine]	101 to 500 nM	101 to 500 nM
C[C@H](N)Cc1sc2c(NCc3ccco3)snc2c1-c1ccncc1 [Compound 10, 7-[(S)-2-aminopropyl]-4-(furfurylamino)-8-(4-pyridyl)-3,6-dithia-2-azabicyclo[3.3.0]octa-1,4,7-triene]	10000 to 40000 nM	10000 to 40000 nM
